Assay results from the NIST ThermoML archive (doi:10.1016/j.fluid.2006.11.005).

Experiments:
[1] = 101.33 kPa, Liquid
[2] = xn = mol fraction of the nth substance listed; conditions: 101.33 kPa, Liquid

c1ccccc1 [benzene]
[1]
Conditions | mass density [kg/m3]
288.15 K | 884.246
293.15 K | 878.918
298.15 K | 873.582
303.15 K | 868.233
308.15 K | 862.871
313.15 K | 857.498

c1ccccc1 [benzene] + ClC(Cl)Cl
[2], x2 = 0
Conditions | mass density [kg/m3]
288.15 K | 884.246
293.15 K | 878.918
298.15 K | 873.582
303.15 K | 868.233
308.15 K | 862.871
313.15 K | 857.498

CCO [ethanol]
[1]
Conditions | mass density [kg/m3]
288.15 K | 793.721
293.15 K | 789.454
298.15 K | 785.164
303.15 K | 780.853
308.15 K | 776.51
313.15 K | 772.138

CCO [ethanol] + ClC(Cl)Cl
[2], x1 = 1
Conditions | mass density [kg/m3]
288.15 K | 793.721
293.15 K | 789.454
298.15 K | 785.164
303.15 K | 780.853
308.15 K | 776.51
313.15 K | 772.138

ClC(Cl)Cl [trichloromethane]
[1]
Conditions | mass density [kg/m3]
288.15 K | 1498.08
293.15 K | 1488.64
298.15 K | 1479.15
303.15 K | 1469.61
308.15 K | 1460.03
313.15 K | 1450.41

ClC(Cl)Cl [trichloromethane] + c1ccccc1
mass density [kg/m3], [2]
Conditions | 288.15 K | 293.15 K | 298.15 K | 303.15 K | 308.15 K | 313.15 K
x1 = 0.1001 | 939.224 | 933.584 | 927.935 | 922.271 | 916.586 | 910.883
x1 = 0.2 | 995.529 | 989.568 | 983.589 | 977.59 | 971.567 | 965.527
x1 = 0.3072 | 1057.3 | 1050.96 | 1044.61 | 1038.23 | 1031.82 | 1025.38
x1 = 0.3995 | 1111.96 | 1105.29 | 1098.58 | 1091.85 | 1085.08 | 1078.27
x1 = 0.4997 | 1172.45 | 1165.38 | 1158.28 | 1151.15 | 1143.98 | 1136.78
x1 = 0.6 | 1234.48 | 1226.99 | 1219.47 | 1211.92 | 1204.33 | 1196.74
x1 = 0.6652 | 1275.68 | 1267.9 | 1260.09 | 1252.24 | 1244.34 | 1236.41
x1 = 0.7991 | 1362.32 | 1353.91 | 1345.46 | 1336.97 | 1328.42 | 1319.82
x1 = 0.8009 | 1363.45 | 1355.03 | 1346.58 | 1338.09 | 1329.56 | 1321.04
x1 = 0.9 | 1429.59 | 1420.68 | 1411.71 | 1402.7 | 1393.63 | 1384.52
x1 = 1 | 1498.08 | 1488.64 | 1479.15 | 1469.61 | 1460.03 | 1450.41
